Columns and labels:
[1] = biological target: TASK-1 (Homo sapiens, UniProt O14649, T93A); test: two-electrode voltage clamp, Xenopus oocytes; format: cell-based; conditions: read-out: % inhibition at 400 nM
[2] = biological target: TASK-1 (Homo sapiens, UniProt O14649, T199A); test: two-electrode voltage clamp, Xenopus oocytes; format: cell-based; conditions: read-out: % inhibition at 400 nM
Chain of TASK-1 (Homo sapiens, UniProt O14649, T199A) (O14649 whole entry T199A): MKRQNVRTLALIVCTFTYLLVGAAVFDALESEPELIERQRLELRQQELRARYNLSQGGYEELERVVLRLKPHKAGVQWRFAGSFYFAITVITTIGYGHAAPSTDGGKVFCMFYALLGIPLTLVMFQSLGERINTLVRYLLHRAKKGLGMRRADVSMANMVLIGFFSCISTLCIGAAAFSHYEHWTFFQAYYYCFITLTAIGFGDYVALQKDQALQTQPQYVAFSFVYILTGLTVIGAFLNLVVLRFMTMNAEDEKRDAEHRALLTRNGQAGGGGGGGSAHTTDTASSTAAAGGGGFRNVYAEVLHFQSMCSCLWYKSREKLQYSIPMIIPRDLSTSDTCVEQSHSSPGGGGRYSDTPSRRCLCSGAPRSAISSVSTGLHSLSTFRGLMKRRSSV

Chain of TASK-1 (Homo sapiens, UniProt O14649, T93A) (O14649 whole entry T93A): as the sequence (O14649 whole entry T199A) above, with T93A, A199T counted along it

Question: For `COc1ccc(CC(=O)NCc2ccccc2-c2ccccc2C(=O)NCc2ccc(F)cc2F)cc1` [A1899], which inhibition at 0.4 µM [1] is on record?
Answer: 26.4 ± 6.4%

Question: And the inhibition at 0.4 µM [2]?
Answer: 36.4 ± 6.4%

Reference: PMC3077598 (The Journal of Biological Chemistry, 2011)
